Like-named read-outs stand apart in the source and are kept apart here.
Experiments:
[1] = system: HI049, MRSA, USA300 clone, SCCmec IV, bla +; experiment: MIC determination and potentiation assay (microdilution broth); assay type: cell-based; settings: Staphylococcus aureus, agent alone
Description: (§1) MICs were determined by the microdilution broth method following the Clinical & Laboratory Standards Institute (CLSI) guidelines. […] Experiments were performed in triplicate in 96-well plates with 5×10^5 CFU·mL^−1 of bacteria. […] The MIC was the concentration for which bacterial growth was not observed.

[2] = system: USA300-0114 (NRS384), MRSA, SCCmec IV, bla +; experiment: as above; assay type: cell-based; settings: Staphylococcus aureus
Description: as §1

[3] = system: H2138 (NRS271), MRSA, SCCmec IV, bla +; experiment: as above; assay type: cell-based; settings: Staphylococcus aureus
Description: as §1

[4] = system: HIP5836 (NRS4), MRSA/VISA, SCCmec II, bla +; experiment: as above; assay type: cell-based; settings: Staphylococcus aureus, agent alone
Description: as §1

[5] = system: CT-19 (NRS676), MRSA, SCCmec IV, bla +; experiment: as above; assay type: cell-based; settings: Staphylococcus aureus
Description: as §1

[6] = system: HFH 29568, MRSA, USA300 clone, SCCmec IV, bla +; experiment: as above; assay type: cell-based; settings: Staphylococcus aureus
Description: as §1

NRS128, MSSA, bla + = experiment: as above; assay type: cell-based; settings: Staphylococcus aureus
Description: as §1

[7] = system: 626 (NRS382), MRSA, SCCmec II, bla +; experiment: as above; assay type: cell-based; settings: Staphylococcus aureus
Description: as §1

[8] = system: N315 (NRS70), MRSA, SCCmec II, bla +; experiment: as above; assay type: cell-based; settings: Staphylococcus aureus
Description: as §1

[9] = system: MN-082 (NRS701), MRSA, SCCmec II, bla +; experiment: as above; assay type: cell-based; settings: Staphylococcus aureus
Description: as §1

[10] = system: MSSA476 (NRS72), MSSA, bla +; experiment: as above; assay type: cell-based; settings: Staphylococcus aureus
Description: as §1

[11] = system: CA-263 (NRS647), MRSA, SCCmec IV, bla +; experiment: as above; assay type: cell-based; settings: Staphylococcus aureus
Description: as §1

[12] = system: ATCC 33591, MRSA, SCCmec III, bla +; experiment: as above; assay type: cell-based; settings: Staphylococcus aureus
Description: as §1

[13] = system: HIP13036 (NRS404), MRSA/VISA, SCCmec II, bla +; experiment: as above; assay type: cell-based; settings: Staphylococcus aureus
Description: as §1

[14] = system: TN-124 (NRS735), MRSA, SCCmec II, bla +; experiment: as above; assay type: cell-based; settings: Staphylococcus aureus
Description: as §1

[15] = system: CA-127 (NRS643), MRSA, SCCmec IV, bla +; experiment: as above; assay type: cell-based; settings: Staphylococcus aureus
Description: as §1

[16] = system: NY-315 (NRS715), MRSA, SCCmec II, bla +; experiment: as above; assay type: cell-based; settings: Staphylococcus aureus
Description: as §1

NRS21 = experiment: Time-kill assay; assay type: cell-based, Staphylococcus aureus; settings: for antibacterial activity as single-drug treatment: FIG. 3, 24 h, OXA 32 mg·L^−1, 4 8 mg·L^−1
Description: Time-kill assay. MRSA strains (NRS21, NRS70, NRS382, NRS404, HFH 29568, and HFH 30495) were grown overnight on tryptic soy agar plate. Bacteria were diluted in Muller-Hinton broth containing 2% NaCl to […] CFU·mL^−1. […] For MEM and CPT, cation-adjusted Muller-Hinton broth without 2% NaCl was used. Aliquots were taken at 0, 3, 6, 9, 12, and 24 h and were diluted serially for bacterial counts. The assay was done in triplicate.

FPR3757 (USA300 clone) = experiment: Time-kill assay; assay type: cell-based, Staphylococcus aureus; settings: for antibacterial activity as single-drug treatment: FIG. 3, 24 h, MEM 2 mg·L^−1, 4 8 mg·L^−1
[17] = system: strain FPR3757 (a USA300 strain); experiment: Checkerboard assay; assay type: cell-based, Staphylococcus aureus; settings: 24-h incubation
Description: Synergy with β-Lactams and Time-Kill Assays. […] In this assay, the antibiotics are compared individually and in combination. The fractional inhibitory concentration (FIC) index is calculated. Synergy is defined as an FIC value ≤0.5, indifference as FIC >0.5 to ≤4, and antagonism as FIC >4.
Checkerboard assay. […] The final inoculum in each well was 5×10^5 CFU·mL^−1, and the result was read after 24-h incubation at 37° C. The fractional inhibitory concentration (FIC) index was calculated for each combination. An FIC index of ≤0.5 is considered synergistic. The experiment was done in triplicates.

[18] = USA300-0114 (NRS384), agent alone, read-out: MIC
[19] = H2138 (NRS271), agent alone, read-out: MIC
[20] = CT-19 (NRS676), agent alone, read-out: MIC
[21] = HFH 29568, agent alone, read-out: MIC
[22] = NRS128, agent alone, read-out: MIC
[23] = 626 (NRS382), agent alone, read-out: MIC
[24] = N315 (NRS70), agent alone, read-out: MIC
[25] = MN-082 (NRS701), agent alone, read-out: MIC
[26] = MSSA476 (NRS72), agent alone, read-out: MIC
[27] = CA-263 (NRS647), agent alone, read-out: MIC
[28] = ATCC 33591, agent alone, read-out: MIC
[29] = HIP13036 (NRS404), agent alone, read-out: MIC
[30] = CA-127 (NRS643), agent alone, read-out: MIC
[31] = NY-315 (NRS715), agent alone, read-out: MIC

Row | SMILES | MIC [1] | MIC [2, 18] | MIC [3, 19] | MIC [4] | MIC [5, 20] | MIC [6, 21] | MIC (NRS128, MSSA, bla +; [22]) | MIC [7, 23] | MIC [8, 24] | MIC [9, 25] | MIC [10, 26] | MIC [11, 27] | MIC [12, 28] | MIC [13, 29] | MIC [14] | MIC [15, 30] | MIC [16, 31] | antibacterial activity as single-drug treatment (NRS21) | antibacterial activity as single-drug treatment (FPR3757 (USA300 clone)) | FIC index, 4 with MEM [17] | other results
1 | CCO/N=C(\C(=O)N[C@@H]1C(=O)N2C(C(=O)[O-])=C(Sc3nc(-c4cc[n+](C)cc4)cs3)CS[C@H]12)c1nsc(N)n1 [CPT, ceftaroline] | 1 µg/mL | 0.5 µg/mL | 1 µg/mL | 0.25 µg/mL | 1 µg/mL | 1 µg/mL | 0.06 µg/mL | 1 µg/mL | 1 µg/mL | 2 µg/mL | 0.13 µg/mL | 0.5 µg/mL | 1 µg/mL | 1 µg/mL | 1 µg/mL | 0.5 µg/mL | 1 µg/mL |  |  |  | 
2 | N#Cc1ccc2nc(SCB(O)O)n(Cc3ccc(C(F)(F)F)cc3C(F)(F)F)c2c1 [Compound 4, (((1-(2,4-bis(trifluoro-methyl)benzyl)-6-cyano-1H-benzo[d]imidazol-2-yl)thio)methyl)boronic acid] | 16 µg/mL | 16 µg/mL | 16 µg/mL | 16 µg/mL | 16 µg/mL | 16 µg/mL | 16 µg/mL | 16 µg/mL | 16 µg/mL | 16 µg/mL | 32 µg/mL | 16 µg/mL | 16 µg/mL | 8 µg/mL | 16 µg/mL | 16 µg/mL | 16 µg/mL | did not show antibacterial activity | did not show antibacterial activity | 0.13 | log increase in bacterial growth at 24 h (NRS21; compound 4 at 8 mg·L^−1): 4.1 log
3 | CO[C@@]1(NC(=O)Cc2cccs2)C(=O)N2C(C(=O)O)=C(COC(N)=O)CS[C@@H]21 [FOX, cefoxitin] | 64 µg/mL | 64 µg/mL |  | 64 µg/mL | 64 µg/mL | 32 µg/mL |  |  |  | 256 µg/mL | 4 µg/mL | 32 µg/mL |  | 256 µg/mL | 128 µg/mL |  | 256 µg/mL |  |  |  | MIC [3]: 128 µg/mL; MIC (NRS128, MSSA, bla +): 4 µg/mL; MIC [7]: 512 µg/mL; MIC [8]: 128 µg/mL; MIC [12]: 128 µg/mL; MIC [15]: 128 µg/mL
4 | C[C@@H](O)[C@H]1C(=O)N2C(C(=O)O)=C(S[C@@H]3CN[C@H](C(=O)N(C)C)C3)[C@H](C)[C@H]12 [MEM, meropenem] | 8 µg/mL | 4 µg/mL | 16 µg/mL | 8 µg/mL | 4 µg/mL | 16 µg/mL | 0.13 µg/mL | 32 µg/mL | 16 µg/mL | 32 µg/mL | 0.13 µg/mL | 4 µg/mL | 16 µg/mL | 8 µg/mL | 8 µg/mL | 4 µg/mL | 32 µg/mL |  | did not show antibacterial activity | 0.13 | activity of MEM by itself (FPR3757 (USA300 clone); throughout the 24-h assay): no activity
5 | Cc1onc(-c2ccccc2)c1C(=O)N[C@@H]1C(=O)N2[C@@H]1SC(C)(C)[C@@H]2C(=O)O [OXA, oxacillin] |  |  |  |  |  |  |  |  |  |  |  |  |  |  | 256 µg/mL |  |  | did not show antibacterial activity |  |  | log increase compared to initial bacterial count at 0 h (NRS21; OXA at 32 mg·L^−1 by itself): 1.9 log; MIC [2]: 128 µg/mL; MIC [3]: 256 µg/mL; MIC [5]: 256 µg/mL; MIC [6]: 64 µg/mL; MIC (NRS128, MSSA, bla +): 0.5 µg/mL; MIC [7]: 512 µg/mL; MIC [9]: 512 µg/mL; MIC [10]: 0.5 µg/mL; MIC [11]: 64 µg/mL; MIC [12]: 512 µg/mL; MIC [13]: 256 µg/mL; MIC [15]: 64 µg/mL; MIC [16]: 256 µg/mL

Source: US20260284011A1, “COMPOUNDS FOR RESTORING SUSCEPTIBILITY TO BETA-LACTAM ANTIBIOTICS” (UNIVERSITY OF NOTRE DAME DU LAC, priority 2023, published 2026)
